Measured values reported in US8703483B2, “Reagents and methods for using human embryonic stem cells to evaluate toxicity of pharmaceutical compounds and other chemicals” (Wisconsin Alumni Research Foundation, priority 2006, dated 2014).

System: human embryonic stem cells
Assay: Metabolite profiling (LC/ESI-TOF mass spectrometry) of extracellular media of hESCs treated with alcohol
Assay type: cell-based
Description: Binned masses were annotated in silico by querying the neutral masses in several different databases. These databases included Metlin, Biological Magnetic Resonance Data Bank (BMRB), NIST Chemistry WebBook, and the Human Metabolome Database. A mass was considered identified when its neutral mass was within 10 ppm of a known compound annotated in one of the databases listed above.

In the case of `CCO` [ETOH], the “Fold: Unknown, mass 646.7084, RT 5.903429” value (ETOH 0.1, 4 D) is reported as −1.271 fold, the “Fold: Unknown, mass 661.3846, RT 26.7452” value (ETOH 0.1, 4 D) is reported as 1.295 fold and the “Fold: Unknown, mass 693.4124, RT 31.11764” value (ETOH 0.1, 4 D) is reported as 2.318 fold. For the same compound, the “Fold: Unknown, mass 699.9225, RT 33.70266” value (ETOH 0.1, 4 D) was 1.719 fold, the “Fold: Unknown, mass 707.3928, RT 34.62439” value (ETOH 0.1, 4 D) was 2.137 fold and the “Fold: Unknown, mass 708.9387, RT 33.73428” value (ETOH 0.1, 4 D) was 2.16 fold. The “Fold: Unknown, mass 730.4494, RT 33.89008” value (ETOH 0.1, 4 D) was 2.614 fold, the “Fold: Unknown, mass 731.0954, RT 47.76987” value (ETOH 0.1, 4 D) was −2.776 fold and the “Fold: Unknown, mass 732.007, RT 5.918027” value (ETOH 0.1, 4 D) was 1.795 fold. The “Fold: Unknown, mass 751.4193, RT 35.028” value (ETOH 0.1, 4 D) was 1.87 fold, the “Fold: Unknown, mass 752.4629, RT 34.12668” value (ETOH 0.1, 4 D) was 2.067 fold and the “Fold: Unknown, mass 774.4767, RT 34.33545” value (ETOH 0.1, 4 D) was 2.104 fold. For the same compound, the “Fold: Unknown, mass 774.5055, RT 89.29926” value (ETOH 0.1, 4 D) was −2.401 fold, the “Fold: Unknown, mass 780.241, RT 5.886782” value (ETOH 0.1, 4 D) was −1.314 fold and the “Fold: Unknown, mass 796.4891, RT 34.52749” value (ETOH 0.1, 4 D) was 1.927 fold. The “Fold: Unknown, mass 796.9917, RT 34.60124” value (ETOH 0.1, 4 D) was 1.818 fold, the “Fold: Unknown, mass 820.8181, RT 4.613879” value (ETOH 0.1, 4 D) was −1.47 fold and the “Fold: Unknown, mass 888.8041, RT 5.259716” value (ETOH 0.1, 4 D) was −1.458 fold. For the same compound, the “Fold: Unknown, mass 921.0025, RT 5.399211” value (ETOH 0.1, 4 D) was 1.678 fold, the “Fold: Unknown, mass 1008.072, RT 3.705141” value (ETOH 0.1, 4 D) was 1.304 fold and the “Fold: Unknown, mass 1038.786, RT 5.177162” value (ETOH 0.1, 4 D) was 1.678 fold. The “Fold: glucuronide, mass 471.1928, RT 30.37291” value (ETOH 0.1, 4 D) was 2.001 fold, the “Fold: 3,4-Dihydroxybutyric acid, mass 129.0452, RT 16.73904” value (ETOH 0.1, 24 H) was 1.502 fold and the “Fold: 3-Methylindole, mass 131.0746, RT 22.22892” value (ETOH 0.1, 24 H) was −1.857 fold. The “Fold: (+/−)-2-(4′-Isobutylphenyl)propionitrile, mass 187.1343, RT 22.17997” value (ETOH 0.1, 24 H) was 1.488 fold, the “Fold: GABA analogue, mass 171.1244, RT 26.70635” value (ETOH 0.1, 24 H) was 2.376 fold and the “Fold: Malonylcarnitine, mass 229.0949, RT 24.52067” value (ETOH 0.1, 24 H) was −2.33 fold. For the same compound, the “Fold: Oxidized glutathione (Glutathione disulfide; GSSG; Oxiglutatione), mass 612.1509, RT 8.056862” value (ETOH 0.1, 24 H) was −1.474 fold, the “Fold: Unknown, mass 130.9541, RT 88.64043” value (ETOH 0.1, 24 H) was 1.632 fold and the “Fold: Unknown, mass 148.0052, RT 3.958833” value (ETOH 0.1, 24 H) was −1.948 fold. For the same compound, the “Fold: Unknown, mass 266.1613, RT 64.66999” value (ETOH 0.1, 24 H) was −1.519 fold, the “Fold: Unknown, mass 271.9364, RT 4.86619” value (ETOH 0.1, 24 H) was 2.629 fold and the “Fold: Unknown, mass 272.16, RT 43.99398” value (ETOH 0.1, 24 H) was 1.93 fold. The “Fold: Unknown, mass 285.2285, RT 63.00428” value (ETOH 0.1, 24 H) was 4.003 fold, the “Fold: Unknown, mass 294.0957, RT 6.160071” value (ETOH 0.1, 24 H) was 1.269 fold and the “Fold: Unknown, mass 296.2308, RT 71.55535” value (ETOH 0.1, 24 H) was 3.545 fold. The “Fold: Unknown, mass 300.1656, RT 17.18696” value (ETOH 0.1, 24 H) was 1.549 fold, the “Fold: Unknown, mass 337.2012, RT 8.542672” value (ETOH 0.1, 24 H) was 1.402 fold and the “Fold: Unknown, mass 362.2787, RT 83.72506” value (ETOH 0.1, 24 H) was 2.82 fold. The “Fold: Unknown, mass 379.1771, RT 20.76168” value (ETOH 0.1, 24 H) was −1.723 fold, the “Fold: Unknown, mass 387.0812, RT 19.97914” value (ETOH 0.1, 24 H) was 1.739 fold and the “Fold: Unknown, mass 388.1815, RT 17.53242” value (ETOH 0.1, 24 H) was −1.449 fold. The “Fold: Unknown, mass 393.1889, RT 15.90129” value (ETOH 0.1, 24 H) was −1.431 fold, the “Fold: Unknown, mass 396.1687, RT 6.259963” value (ETOH 0.1, 24 H) was 1.718 fold and the “Fold: Unknown, mass 437.2042, RT 32.18393” value (ETOH 0.1, 24 H) was 24.53 fold. For the same compound, the “Fold: Unknown, mass 462.2217, RT 22.95657” value (ETOH 0.1, 24 H) was −1.986 fold, the “Fold: Unknown, mass 464.225, RT 25.3287” value (ETOH 0.1, 24 H) was −1.631 fold and the “Fold: Unknown, mass 482.3062, RT 72.7735” value (ETOH 0.1, 24 H) was −1.959 fold. The “Fold: Unknown, mass 485.2069, RT 6.676207” value (ETOH 0.1, 24 H) was −2.014 fold, the “Fold: Unknown, mass 521.9924, RT 34.35986” value (ETOH 0.1, 24 H) was −1.446 fold and the “Fold: Unknown, mass 577.2825, RT 16.90923” value (ETOH 0.1, 24 H) was 1.728 fold. The “Fold: Unknown, mass 677.9101, RT 33.48766” value (ETOH 0.1, 24 H) was −2.221 fold, the “Fold: Unknown, mass 695.4286, RT 28.2045” value (ETOH 0.1, 24 H) was −32.9384 fold and the “Fold: Unknown, mass 707.4296, RT 56.18269” value (ETOH 0.1, 24 H) was 1.49 fold. The “Fold: Unknown, mass 711.8344, RT 4.826824” value (ETOH 0.1, 24 H) was −3.021 fold, the “Fold: Unknown, mass 765.5211, RT 69.32865” value (ETOH 0.1, 24 H) was 1.873 fold and the “Fold: Unknown, mass 909.5934, RT 8.502051” value (ETOH 0.1, 24 H) was 2.274 fold. The “Fold: Unknown, mass 913.8074, RT 5.217833” value (ETOH 0.1, 24 H) was −1.861 fold, the “Fold: Unknown, mass 994.0917, RT 3.646902” value (ETOH 0.1, 24 H) was 1.442 fold and the “Fold: 3,4-Dihydroxybutyric acid, mass 120.0436, RT 3.767232” value (ETOH 0.3, 4 D) was 1.936 fold. For the same compound, the “Fold: 3-(2,5-Dimethoxy phenylpropionic acid, mass 210.0922, RT 36.18938)” value (ETOH 0.3, 4 D) was 1.85 fold, the “Fold: 3-Methylindole, mass 131.0746, RT 22.22892” value (ETOH 0.3, 4 D) was 2.502 fold and the “Fold: 5-Ethyl-5-(1-methyl-3-carboxypropyl)barbituric acid, mass 256.1066, RT 18.84552” value (ETOH 0.3, 4 D) was −2.141 fold. The “Fold: 5-Methoxytryptophan, mass 234.1253, RT 53.26863” value (ETOH 0.3, 4 D) was −1.624 fold, the “Fold: (+)-Eudesmin, mass 386.1724, RT 51.65871” value (ETOH 0.3, 4 D) was 4.851 fold and the “Fold: Amino-4methylthiobutyric acid, mass 149.0511, RT 7.479235” value (ETOH 0.3, 4 D) was −1.305 fold. The “Fold: Benzenemethanol, 2-(2-aminopropoxy)-3-methyl- / a-[1-(ethylamino)ethyl]-p-hydroxy-Benzyl alcohol, mass 195.124, RT 31.19917” value (ETOH 0.3, 4 D) was −1.86 fold, the “Fold: Homogentisic acid / Vanillic acid, mass 168.0434, RT 19.18355” value (ETOH 0.3, 4 D) was 1.282 fold and the “Fold: L-Histidine / 4-propionic acid, mass 155.0681, RT 5.559732” value (ETOH 0.3, 4 D) was 1.638 fold. The “Fold: Malonylcarnitine, mass 229.0949, RT 24.52067” value (ETOH 0.3, 4 D) was −1.74 fold, the “Fold: N-Methyl-2-pyrrolidinone, mass 99.0689, RT 15.48433” value (ETOH 0.3, 4 D) was 1.338 fold and the “Fold: Pantothenol / dimethylbutanamide;, mass 205.1304, RT 6.747279” value (ETOH 0.3, 4 D) was −1.339 fold. For the same compound, the “Fold: Phenanthrene-9,10-oxide / 9-Hydroxyphenanthrene; 9-Phenanthrol, mass 194.073, RT 5.935143” value (ETOH 0.3, 4 D) was −1.4 fold, the “Fold: Thiosulfate, mass 111.9839, RT 4.032816” value (ETOH 0.3, 4 D) was −8.676 fold and the “Fold: Unknown, mass 120.2112, RT 13.40565” value (ETOH 0.3, 4 D) was 3.9 fold. The “Fold: Unknown, mass 131.076, RT 14.35336” value (ETOH 0.3, 4 D) was 4.05 fold, the “Fold: Unknown, mass 162.0662, RT 44.88033” value (ETOH 0.3, 4 D) was 1.799 fold and the “Fold: Unknown, mass 201.1709, RT 19.48063” value (ETOH 0.3, 4 D) was −2.979 fold. The “Fold: Unknown, mass 218.0762, RT 6.62669” value (ETOH 0.3, 4 D) was −1.771 fold, the “Fold: Unknown, mass 229.1457, RT 55.50731” value (ETOH 0.3, 4 D) was −1.533 fold and the “Fold: Unknown, mass 243.11, RT 27.39631” value (ETOH 0.3, 4 D) was −1.495 fold. The “Fold: Unknown, mass 247.1049, RT 6.626769” value (ETOH 0.3, 4 D) was −4.476 fold, the “Fold: Unknown, mass 247.1408, RT 9.0276” value (ETOH 0.3, 4 D) was −2.751 fold and the “Fold: Unknown, mass 267.2543, RT 40.75868” value (ETOH 0.3, 4 D) was −1.6481 fold.
